According to patent publication US20030225007A1, “Sulfonamide derivatives of 3-substituted imidazol[1,2-d]-1,2,4-thiadiazoles and 3-substituted-[1,2,4] thiadiazolo[4,5-a] benzimidazole as inhibitors of fibrin cross-linking and transglutaminases” (Apotex Inc., priority 2002, published 2003):
pIC50: −log10 of the molar value. Read-outs that look alike come from different tables or passages of the source.

Columns and labels:
[1] = target: T1, Factor XIIIa (activated FXIII) (Homo sapiens, UniProt P00488); experiment: Inactivation of purified Factor XIIIa (monodansylcadaverine incorporation into dimethylcasein, fluorescence); type: biochemical; conditions: for kinact/KI: purified Factor XIIIa, method of Kitz and Wilson, read-out: Second order rate constant for inactivation; for IC50: purified activated FXIII, 50% enzyme inactivation after 5-min incubation with inhibitor at 37° C. in the absence of substrate, read-out: FXIIIa (IC50 in μM); for pIC50: values without asterisk, purified FXIIIa, 5-min incubation, read-out: FXIIIa IC50 determined by method in Example 16
T1 construct: purchased Enzyme Research Laboratories, Ltd
T1 sequence (P00488 39-732 limits assumed): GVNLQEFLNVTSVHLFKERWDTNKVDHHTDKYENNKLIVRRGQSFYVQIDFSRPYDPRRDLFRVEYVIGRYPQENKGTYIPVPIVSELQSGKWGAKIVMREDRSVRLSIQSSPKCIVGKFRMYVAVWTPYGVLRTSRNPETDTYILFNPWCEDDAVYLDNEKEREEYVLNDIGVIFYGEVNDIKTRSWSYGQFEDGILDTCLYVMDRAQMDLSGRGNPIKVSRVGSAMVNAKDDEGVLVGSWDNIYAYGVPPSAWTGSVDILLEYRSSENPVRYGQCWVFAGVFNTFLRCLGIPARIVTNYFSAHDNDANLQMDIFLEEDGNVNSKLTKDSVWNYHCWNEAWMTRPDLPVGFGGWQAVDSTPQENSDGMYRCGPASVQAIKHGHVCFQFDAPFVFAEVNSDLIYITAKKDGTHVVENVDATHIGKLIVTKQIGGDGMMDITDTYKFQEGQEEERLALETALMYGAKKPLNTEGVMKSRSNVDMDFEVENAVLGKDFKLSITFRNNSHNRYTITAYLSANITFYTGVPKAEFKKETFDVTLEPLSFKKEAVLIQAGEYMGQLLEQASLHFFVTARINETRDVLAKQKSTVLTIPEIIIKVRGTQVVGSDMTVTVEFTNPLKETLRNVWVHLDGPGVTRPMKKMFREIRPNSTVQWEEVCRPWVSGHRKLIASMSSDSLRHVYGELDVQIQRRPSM
Summary of the method: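 FXIII activated by human thrombin (10 NIH units/mL, 20 min, 37° C.), thrombin quenched with hirudin. Enzyme then preincubated with inhibitor 5 min at 37° C. without substrate. Residual activity read as monodansylcadaverine (20 μM) incorporation into dimethylcasein, fluorescence λexc 360/λem 500 nm. IC50 from % remaining activity versus log concentration; Kitz-Wilson second-order inactivation constants.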

[2] = target: T2, endogenous Factor XIII in plasma (Plasma FXIIIa) (Homo sapiens, UniProt P00488); experiment: Inactivation of endogenous Factor XIII in plasma; type: biochemical; conditions: citrated plasma, thrombin-activated, 5 min at 37° C.
T2 construct: from tissue; host or cells: citrated plasma (desensitized by heating)
T2 sequence (P00488 39-732 limits assumed): T1 sequence (P00488 39-732 limits assumed)
Protocol: Citrated plasma (0.235 mL) was “desensitized” by heating with ethylene glycol monomethyl ether (0.235 mL, 20% solution in water) in a glass test tube at 56° C. for 4 min., as described by Lorand (Lorand, L.; Lockridge, O. M.; Campbell, L. K.; Myhrman, R.; Bruner-Lorand, J. Anal.Biochem. 1971, 44, 221-231). After cooling to 37° C., calcium chloride (20 μL, 0.4 M in 50 mM Tris-HCl pH 7.5) and inhibitor solution in 50% glycerol (59 μL) were added. Bovine thrombin (30 NIH units in 118 μL of 50 mM Tris-HCl pH 7.5 containing 20 mM CaCl2) was added and the mixture was incubated at 37° C. for 5 min.
An assay mixture composed of 0.1 M sodium borate, pH 9.0, 0.3% ethylene glycol monomethyl ether, 32 μM monodansylcadaverine, 10 mM CaCl2 and 0.08% dimethyl casein in a final volume of 1.263 mL was prepared in a spectrofluorometric cell and incubated at 37° C. for a few minutes. To assay the residual enzyme activity, 567 μL of the plasma solution was transferred to the assay mixture. The covalent incorporation of monodansylcadaverine into casein was monitored by an increase in fluorescence at λex=360 nm and λem=500 nm, as previously described (Curtis, C. G.; Lorand, L. Methods Enzymol. 1976, 45, 177-191). To determine uninhibited enzyme activity, inhibitor solution was replaced by 50% glycerol. IC50 values (inhibitor concentration resulting in 50% enzyme inactivation) were determined by plotting the percent of remaining enzyme activity against logarithm of inhibitor concentration.

In the case of O=S(=O)(NCCCCCCNc1nsc2nccn12)c1cccc2ccccc12 [1-naphthyl, N-[6-(imidazo[1,2-d][1,2,4]thiadiazol-3-ylamino)hexyl]naphthalene-1-sulfonamide], the kinact/KI [1] was 3300 M⁻¹ s⁻¹, the IC50 [1] was 0.52 µM and the pIC50 [1] was 6.28. For the same compound, the pIC50 [2] was 5.08.
Work on O=S(=O)(Cc1ccccc1)NCCCCCCNc1nsc2nccn12 [2 / CH2Ph, N-[6-(imidazo[1,2-d][1,2,4]thiadiazol-3-ylamino)hexyl]-1-phenylmethanesulfonamide] yielded a pIC50 [1] of 5.11 and a pIC50 [2] of 4.72.
O=S(=O)(NCCCCCCNc1nsc2nccn12)c1ccc(F)cc1F [2,4-diF-Ph, 2,4-difluoro-N-[6-(imidazo[1,2-d][1,2,4]thiadiazol-3-ylamino)hexyl]benzenesulfonamide] showed an IC50 [1] of 1.4 µM, a pIC50 [1] of 5.85 and a pIC50 [2] of 5.21.
Compound O=S(=O)(NCCCCCCNc1nsc2nccn12)c1ccc(OC(F)(F)F)cc1 [4-OCF3-Ph, N-[6-(imidazo[1,2-d][1,2,4]thiadiazol-3-ylamino)hexyl]-4-trifluoromethoxybenzenesulfonamide] has a pIC50 [1] of 5.80 and a pIC50 [2] of 4.51.
O=C(O)CN(CCCCCCNS(=O)(=O)c1ccccc1[N+](=O)[O-])c1nsc2nccn12 [H / CH2CO2H / 2-NO2-Ph, N-imidazo[1,2-d][1,2,4]thiadiazol-3-yl-N-(6-{[(2-nitrophenyl)sulfonyl]amino}hexyl)glycine] showed a kinact/KI [1] of 4500 M⁻¹ s⁻¹, an IC50 [1] of 0.62 µM and a pIC50 [1] of 6.21.
